Results published in patent US9642869B2, “Boronic acid derivatives and therapeutic uses thereof” (Rempex Pharmaceuticals, Inc., priority 2013, dated 2017).
Read-outs that look alike come from different tables or passages of the source.

Tests used:
[1] = tested on: OXA-48 KP1086; assay: Biapenem potentiation (MPC@1); type: cell-based; conditions: minimum BLI concentration inhibiting growth with 1 μg/mL biapenem
Method: (§1) Biapenem was present in the test medium at 1 μg/mL. […] Table 3 summarizes the BLI potency of biapenem potentiation (MPC@1) for two strains overexpressing class A (KPC) and class D (OXA-48) carbapenemases. Biapenem MIC for each strain is also shown.

[2] = tested on: KP1004 KPC-2; assay: Biapenem potentiation (MPC@1); type: cell-based; conditions: minimum BLI concentration inhibiting growth with 1 μg/mL biapenem
Method: as §1

[3] = tested on: ECL1002; type: cell-based; conditions: for TIG MPC4 ECL1002: minimum BLI concentration inhibiting growth with tigemonam at 4 μg/mL
[4] = tested on: ECL1002; assay: Aztreonam potentiation (MPC@4); type: cell-based; conditions: minimum BLI concentration inhibiting growth with 4 μg/mL aztreonam
[5] = tested on: CTX-M-15 KP1009; type: cell-based
[6] = tested on: SHV-5 ec308; type: cell-based; conditions: for TIG MPC4 SHV-5 ec308: minimum BLI concentration inhibiting growth with tigemonam at 4 μg/mL
[7] = tested on: SHV-5 ec308; assay: Aztreonam potentiation (MPC@4); type: cell-based; conditions: minimum BLI concentration inhibiting growth with 4 μg/mL aztreonam
[8] = tested on: TEM-10 ec302; type: cell-based
[9] = molecular target: SHV-12 (Klebsiella pneumoniae, UniProt P0AD64, E235K/G234S/L31Q); assay: Inhibition of nitrocefin cleavage by purified enzyme (Ki); type: biochemical; conditions: nitrocefin reporter substrate, 10 min preincubation; read-out: Ki (SHV-12, NCF)
Sequence of SHV-12 (P0AD64 22-286 L31Q/G234S/E235K): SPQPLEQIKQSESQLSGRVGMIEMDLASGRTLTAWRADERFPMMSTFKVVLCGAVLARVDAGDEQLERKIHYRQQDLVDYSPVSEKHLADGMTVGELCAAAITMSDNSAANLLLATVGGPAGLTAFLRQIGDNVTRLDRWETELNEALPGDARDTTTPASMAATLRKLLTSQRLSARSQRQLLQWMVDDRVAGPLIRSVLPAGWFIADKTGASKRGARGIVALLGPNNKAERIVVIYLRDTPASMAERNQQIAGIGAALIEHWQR
Method: Purified enzymes were mixed with various concentrations of inhibitors in reaction buffer and incubated for 10 min at room temperature. Nitrocefin was added and substrate cleavage profiles were recorded at 490 nm every 10 sec for 10 min.

[10] = tested on: KPC-2 KP1004; assay: Aztreonam potentiation (MPC@4); type: cell-based; conditions: minimum BLI concentration inhibiting growth with 4 μg/mL aztreonam
[11] = tested on: CMY-6 EC1010; assay: Aztreonam potentiation (MPC@4); type: cell-based; conditions: minimum BLI concentration inhibiting growth with 4 μg/mL aztreonam
[12] = tested on: CTX-M-14 KP1005; type: cell-based
[13] = tested on: CTX-M-15 KP1009; assay: Aztreonam potentiation (MPC@4); type: cell-based; conditions: minimum BLI concentration inhibiting growth with 4 μg/mL aztreonam
[14] = Intravenous pharmacokinetics; type: in vivo; conditions: rat, plasma, rats, IV infusion over 0.5 hours, read-out: Free Cl (converted)
Method: Rats (n=3 per compound) were administered by a single infusion. IV doses were infused over 0.5 hours via an indwelling femoral vein cannula. Plasma (˜0.3 mL) samples were collected from each rat at designated time points up to 24 hours. Blood samples were centrifuged within 5 min of collection at 12000 g for 5 min to obtain plasma. The plasma samples were stored at −80° C. until analyzed. Data were analyzed using WinNonlin.

[15] = Salt/complex formation to maintain the monomeric form (solution pH, monomer by HPLC); type: physicochemical
Method: The effect of additives that would form a salt or complex with the boronic acid derivatives was evaluated in order to identify those that would strongly favor the monomeric form at an acceptable pH for IV infusion (pH 4-8). […] The pH of the resulting homogeneous solution was measured with a pH meter and the purity was monitored by HPLC. Several bases and complexing agents were screened to identify those that would afford the highest monomer content as salt/complex with a desired pH. […] Oligomerization was more pronounced at higher concentrations with some bases and complexing agents. Among all the bases screened, the meglumine complex gave the highest percentage of monomeric form at the desired pH.

[16] = tested on: CMY-6 EC1010; type: cell-based; conditions: strain CMY-6 EC1010, tigemonam alone
[17] = Compound 13 2 mg/mL in water, Pyridine-2-methanol, 2 equivalents
[18] = Compound 13 3 mg/mL in water, L-Lysine, 2 equivalents
[19] = Compound 13 10 mg/mL in water, 0.5N NaOH, 1 equivalent
[20] = Compound 13 10 mg/mL in water, 0.5N NaOH, 2 equivalents
[21] = Compound 13 10 mg/mL in water, Diethanolamine, 2 equivalents
[22] = Compound 13 10 mg/mL in water, Ethanolamine, 2 equivalents
[23] = Compound 13 10 mg/mL in water, Tris, 2 equivalents
[24] = Compound 13 50 mg/mL in water, Tris, 2 equivalents
[25] = Compound 13 50 mg/mL in water, Tris, 3 equivalents

Row | SMILES | BPM MPC1 OXA-48 KP1086 [1] | BPM MPC1 KP1004 KPC-2 [2] | TIG MPC4 ECL1002 [3] | AZT MPC4 ECL1002 [4] | TIG MPC4 CTX-M-15 KP1009 [5] | TIG MPC4 SHV-5 ec308 [6] | AZT MPC4 SHV-5 ec308 [7] | TIG MPC4 TEM-10 ec302 [8] | Ki [9] | AZT MPC4 KPC-2 KP1004 [10] | AZT MPC4 CMY-6 EC1010 [11] | TIG MPC4 CTX-M-14 KP1005 [12] | AZT MPC4 CTX-M-15 KP1009 [13] | clearance ([14]; dose 20 mg/kg) | further results
1 | O=C(Cc1cccs1)N[C@H]1Cc2cccc(C(=O)O)c2OB1O [CPD A, reference compound] | Y (MIC of 1 μg/mL to 10 μg/mL) | X (MIC of less than 1 μg/mL) | Y (MIC of 1 μg/mL to 10 μg/mL) | Y (MIC of 1 μg/mL to 10 μg/mL) | Y (key: X: MIC of less than 1 μg/mL; Y: MIC of 1 μg/mL to 10 μg/mL; Z: MIC of greater than 10 μg/mL) | Y (MIC of 1 μg/mL to 10 μg/mL) | X (MIC of less than 1 μg/mL) | Z (key: X: MIC of less than 1 μg/mL; Y: MIC of 1 μg/mL to 10 μg/mL; Z: MIC of greater than 10 μg/mL) | < 1 nM | Y (MIC of 1 μg/mL to 10 μg/mL) | Y (MIC of 1 μg/mL to 10 μg/mL) | Y (key: X: MIC of less than 1 μg/mL; Y: MIC of 1 μg/mL to 10 μg/mL; Z: MIC of greater than 10 μg/mL) | Y (MIC of 1 μg/mL to 10 μg/mL) |  | 
2 | O=C(CSC(F)F)N[C@H]1Cc2cccc(C(=O)O)c2OB1O [Compound 3, (R)-3-(2-(difluoromethylthio)acetamido)-2-hydroxy-3,4-dihydro-2H-benzo[e][1,2]oxaborinine-8-carboxylic acid] | Y (MIC of 1 μg/mL to 10 μg/mL) | X (MIC of less than 1 μg/mL) | Y (MIC of 1 μg/mL to 10 μg/mL) | Y (MIC of 1 μg/mL to 10 μg/mL) | X (key: X: MIC of less than 1 μg/mL; Y: MIC of 1 μg/mL to 10 μg/mL; Z: MIC of greater than 10 μg/mL) | X (MIC of less than 1 μg/mL) | X (MIC of less than 1 μg/mL) | Y (key: X: MIC of less than 1 μg/mL; Y: MIC of 1 μg/mL to 10 μg/mL; Z: MIC of greater than 10 μg/mL) | < 1 nM | Y (MIC of 1 μg/mL to 10 μg/mL) | X (MIC of less than 1 μg/mL) | X (key: X: MIC of less than 1 μg/mL; Y: MIC of 1 μg/mL to 10 μg/mL; Z: MIC of greater than 10 μg/mL) |  | 40.8 mL/min/kg | 
3 | O=CN[C@H]1Cc2cccc(C(=O)O)c2OB1O [Compound 4, (R)-3-formamido-2-hydroxy-3,4-dihydro-2H-benzo[e][1,2]oxaborinine-8-carboxylic acid] | Y (MIC of 1 μg/mL to 10 μg/mL) | X (MIC of less than 1 μg/mL) | X (MIC of less than 1 μg/mL) | Y (MIC of 1 μg/mL to 10 μg/mL) | Y (key: X: MIC of less than 1 μg/mL; Y: MIC of 1 μg/mL to 10 μg/mL; Z: MIC of greater than 10 μg/mL) | Y (MIC of 1 μg/mL to 10 μg/mL) | Y (MIC of 1 μg/mL to 10 μg/mL) | Z (key: X: MIC of less than 1 μg/mL; Y: MIC of 1 μg/mL to 10 μg/mL; Z: MIC of greater than 10 μg/mL) | 1 to 10 nM | X (MIC of less than 1 μg/mL) |  | Y (key: X: MIC of less than 1 μg/mL; Y: MIC of 1 μg/mL to 10 μg/mL; Z: MIC of greater than 10 μg/mL) | Y (MIC of 1 μg/mL to 10 μg/mL) | 28.8 mL/min/kg | 
4 | CSCC(=O)N[C@H]1Cc2cccc(C(=O)O)c2OB1O [Compound 13, (R)-2-hydroxy-3-(2-(methylthio)acetamido)-3,4-dihydro-2H-benzo[e][1,2]oxaborinine-8-carboxylic acid] | Y (MIC of 1 μg/mL to 10 μg/mL) | X (MIC of less than 1 μg/mL) | X (MIC of less than 1 μg/mL) | X (MIC of less than 1 μg/mL) | X (key: X: MIC of less than 1 μg/mL; Y: MIC of 1 μg/mL to 10 μg/mL; Z: MIC of greater than 10 μg/mL) | X (MIC of less than 1 μg/mL) | X (MIC of less than 1 μg/mL) | Y (key: X: MIC of less than 1 μg/mL; Y: MIC of 1 μg/mL to 10 μg/mL; Z: MIC of greater than 10 μg/mL) |  | X (MIC of less than 1 μg/mL) | X (MIC of less than 1 μg/mL) | X (key: X: MIC of less than 1 μg/mL; Y: MIC of 1 μg/mL to 10 μg/mL; Z: MIC of greater than 10 μg/mL) | X (MIC of less than 1 μg/mL) | 41.2 mL/min/kg | Monomer purity by HPLC (%) [15, 17]: 78%; pH [15, 17]: 5.5; Monomer purity by HPLC (%) [15, 18]: 97.3%; pH [15, 18]: 8.9; Monomer purity by HPLC (%) [15, 19]: 51.3%; pH [15, 19]: 7.3; Monomer purity by HPLC (%) [15, 20]: 60.9%; pH [15, 20]: 8.4; Monomer purity by HPLC (%) [15, 21]: 92.2%; pH [15, 21]: 11; Monomer purity by HPLC (%) [15, 22]: 97.1%; pH [15, 22]: 11; pH ([15]; Compound 13 10 mg/mL in water, Meglumine, 2 equivalents): 7.1; Monomer purity by HPLC (%) [15, 23]: 94.7%; pH [15, 23]: 7.8; pH ([15]; Compound 13 50 mg/mL in water, Meglumine, 2 equivalents): 7.2; Monomer purity by HPLC (%) [15, 24]: 89.7%; pH [15, 24]: 7.7; Monomer purity by HPLC (%) [15, 25]: 95.4%; pH [15, 25]: 8.5
5 | Nc1nnc(C(=O)N[C@H]2Cc3cccc(C(=O)O)c3OB2O)s1 [Compound 19, (R)-3-(5-amino-1,3,4-thiadiazole-2-carboxamido)-2-hydroxy-3,4-dihydro-2H-benzo[e][1,2]oxaborinine-8-carboxylic acid] | Y (MIC of 1 μg/mL to 10 μg/mL) | X (MIC of less than 1 μg/mL) | Y (MIC of 1 μg/mL to 10 μg/mL) | Y (MIC of 1 μg/mL to 10 μg/mL) | Y (key: X: MIC of less than 1 μg/mL; Y: MIC of 1 μg/mL to 10 μg/mL; Z: MIC of greater than 10 μg/mL) | X (MIC of less than 1 μg/mL) | X (MIC of less than 1 μg/mL) | Y (key: X: MIC of less than 1 μg/mL; Y: MIC of 1 μg/mL to 10 μg/mL; Z: MIC of greater than 10 μg/mL) | < 1 nM | Y (MIC of 1 μg/mL to 10 μg/mL) | X (MIC of less than 1 μg/mL) | Y (key: X: MIC of less than 1 μg/mL; Y: MIC of 1 μg/mL to 10 μg/mL; Z: MIC of greater than 10 μg/mL) |  |  | clearance ([14]; dose 10 mg/kg): 20.8 mL/min/kg
6 | CC1(C)[C@H](NC(=O)/C(=N\OCC(=O)O)c2csc(N)n2)C(=O)N1OS(=O)(=O)O [Tigemonam, reference compound] |  |  |  |  |  |  |  |  |  |  |  |  |  |  | Tigemonam MIC ([3]; strain ECL1002, tigemonam alone): 32 µg/mL; Tigemonam MIC ([5]; strain CTX-M-15 KP1009, tigemonam alone): >64 µg/mL; Tigemonam MIC ([6]; strain SHV-5 ec308, tigemonam alone): >64 µg/mL; Tigemonam MIC ([8]; strain TEM-10 ec302, tigemonam alone): >64 µg/mL; Tigemonam MIC [16]: 16 µg/mL; Tigemonam MIC ([12]; strain CTX-M-14 KP1005, tigemonam alone): >64 µg/mL
